Data on one compound can be found in patent publication US12582104B2, “Mutant myocilin disease model and uses thereof” (Regeneron Pharmaceuticals, Inc., priority 2021, dated 2026).

The test has as its system SAM-MYOC mice. In words: Intraocular pressure (IOP) in SAM-MYOC mice. In kind it is in vivo, mouse. To be noted: SAM-MYOC mice approximately 10 weeks after AAV2.Y3F-SAM-g4; one drop per eye; IOP at 2, 4, 6, and 24 hours. Here is the method: To validate the SAM mice comprising a humanized MYOC locus comprising a Y437H mutation (SAM-MYOC mice), SAM-MYOC mice homozygous or heterozygous for the humanized MYOC locus were treated with AAV2.Y3F-SAM-g4, AAV2.Y3F-SAM-g5, an AAV2.Y3F-SAM-LacZ control, or nothing (naïve). […] This validated the SAM-MYOC mice as a suitable MYOC disease model with increased IOP.
IOP-lowering drugs used to treat glaucoma patients were then tested as a proof-of-concept to determine if they could lower the IOP observed in the SAM-MYOC mice following treatment with SAM-g4. We tested two IOP-lowering drugs: (1) timolol (a beta blocker that suppresses aqueous humor formation); and (2) RHOPRESSA® (a ROCK inhibitor that increases outflow of aqueous humor). […] At 0 hours, the IOP was measured, and each eye received one drop of either timolol or RHOPRESSA®, and IOP was measured at 2, 4, 6, and 24 hours after treatment.
An siRNA targeting human MYOC was then tested to determine if it could lower the high IOP observed in the SAM-MYOC mice following treatment with SAM-g4. SAM-g4 was administered via intracameral (IC) injection at day 0, and baseline IOP was measured. IOP was then measured over the following five weeks. At week five, MYOC siRNA #1 (1 μL, 15 μg dose) was administered via intravitreal (IVT) injection, and IOP was measured at various timepoints over the subsequent weeks. […]

Take `CC(C)(C)NC[C@H](O)COc1nsnc1N1CCOCC1` [timolol]: the “IOP after IOP-lowering drug” value is “effective at lowering IOP”.
